This passage reports IC50 results from patent US12258327B2, “5-membered heteroaryl-containing aminopyridine compounds as EGFR inhibitors” (YUHAN CORPORATION, priority 2021, dated 2025).

Like-named read-outs stand apart in the source and are kept apart here. Some results are limits rather than exact numbers.

The target of one assay is EGFR L858R/T790M/C797S (Homo sapiens, UniProt P00533, C797S/L858R/T790M). As to the kind of experiment: Biochemical EGFR kinase assay (Lance Ultra TR-FRET), triple mutant L858R/T790M/C797S. In short, it runs like this:
(§1)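 Enzyme reactions lasted 1 hour at room temperature with test compounds between 0.003 and 10 μM, followed by 10 mM EDTA quench.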

The target in a further assay is EGFR L858R/C797S (Homo sapiens, UniProt P00533, C797S/L858R). As to the kind of experiment: Biochemical EGFR kinase assay (Lance Ultra TR-FRET), double mutant L858R/C797S. In short, it runs like this: as §1
Another assay addresses EGFR del19/T790M/C797S (Homo sapiens, UniProt P00533, C797S/DEL746-750/T790M). As to the kind of experiment: Biochemical EGFR kinase assay (Lance Ultra TR-FRET), triple mutant del19/T790M/C797S. In outline:
as §1

In a further assay the target is EGFR del19/C797S (Homo sapiens, UniProt P00533, C797S/DEL746-750). As to the kind of experiment: Biochemical EGFR kinase assay (Lance Ultra TR-FRET), double mutant del19/C797S. In outline:
as §1

The next assay concerns the target EGFR wildtype (WT) (Homo sapiens, UniProt P00533). As to the kind of experiment: Biochemical EGFR kinase assay (Lance Ultra TR-FRET), wildtype. In short, it runs like this:
as §1
In general terms: In TR-FRET formats the signal depends on donor and acceptor labels being close together.

Setting [1] is: IC50 L858R/T790M/C797S (nM) 100 μM ATP, 100 μM ATP.
Setting [2] is: IC50 L858R/C797S (nM) 100 μM ATP, 100 μM ATP.
Where [3] appears, read: IC50 del19/T790M/C797S (nM) 100 μM ATP, 100 μM ATP.
Setting [4] is: IC50 del19/C797S (nM) 100 μM ATP, 100 μM ATP.
The mark [5] stands for this setting: IC50 WT (nM) 100 μM ATP, 100 μM ATP.
[6] abbreviates: Km ATP, read-out: IC50 L858R/T790M/C797S (nM) Km ATP.
Where [7] appears, read: Km ATP, read-out: IC50 L858R/C797S (nM) Km ATP.
[8] abbreviates: Km ATP, read-out: IC50 del19/T790M/C797S (nM) Km ATP.
Setting [9] is: Km ATP, read-out: IC50 del19/C797S (nM) Km ATP.
Setting [10] is: Km ATP, read-out: IC50 WT (nM) Km ATP.
Setting [11] is: Km ATP, read-out: IC50 L858R/T790M/C797S, Km ATP.
Where [12] appears, read: Km ATP, read-out: IC50 L858R/C797S, Km ATP.
[13] abbreviates: Km ATP, read-out: IC50 del19/T790M/C797S, Km ATP.
Setting [14] is: Km ATP, read-out: IC50 del19/C797S, Km ATP.
Setting [15] is: Km ATP, read-out: IC50 WT, Km ATP.

Sequence of EGFR L858R/T790M/C797S (P00533 25-1210 T790M/C797S/L858R): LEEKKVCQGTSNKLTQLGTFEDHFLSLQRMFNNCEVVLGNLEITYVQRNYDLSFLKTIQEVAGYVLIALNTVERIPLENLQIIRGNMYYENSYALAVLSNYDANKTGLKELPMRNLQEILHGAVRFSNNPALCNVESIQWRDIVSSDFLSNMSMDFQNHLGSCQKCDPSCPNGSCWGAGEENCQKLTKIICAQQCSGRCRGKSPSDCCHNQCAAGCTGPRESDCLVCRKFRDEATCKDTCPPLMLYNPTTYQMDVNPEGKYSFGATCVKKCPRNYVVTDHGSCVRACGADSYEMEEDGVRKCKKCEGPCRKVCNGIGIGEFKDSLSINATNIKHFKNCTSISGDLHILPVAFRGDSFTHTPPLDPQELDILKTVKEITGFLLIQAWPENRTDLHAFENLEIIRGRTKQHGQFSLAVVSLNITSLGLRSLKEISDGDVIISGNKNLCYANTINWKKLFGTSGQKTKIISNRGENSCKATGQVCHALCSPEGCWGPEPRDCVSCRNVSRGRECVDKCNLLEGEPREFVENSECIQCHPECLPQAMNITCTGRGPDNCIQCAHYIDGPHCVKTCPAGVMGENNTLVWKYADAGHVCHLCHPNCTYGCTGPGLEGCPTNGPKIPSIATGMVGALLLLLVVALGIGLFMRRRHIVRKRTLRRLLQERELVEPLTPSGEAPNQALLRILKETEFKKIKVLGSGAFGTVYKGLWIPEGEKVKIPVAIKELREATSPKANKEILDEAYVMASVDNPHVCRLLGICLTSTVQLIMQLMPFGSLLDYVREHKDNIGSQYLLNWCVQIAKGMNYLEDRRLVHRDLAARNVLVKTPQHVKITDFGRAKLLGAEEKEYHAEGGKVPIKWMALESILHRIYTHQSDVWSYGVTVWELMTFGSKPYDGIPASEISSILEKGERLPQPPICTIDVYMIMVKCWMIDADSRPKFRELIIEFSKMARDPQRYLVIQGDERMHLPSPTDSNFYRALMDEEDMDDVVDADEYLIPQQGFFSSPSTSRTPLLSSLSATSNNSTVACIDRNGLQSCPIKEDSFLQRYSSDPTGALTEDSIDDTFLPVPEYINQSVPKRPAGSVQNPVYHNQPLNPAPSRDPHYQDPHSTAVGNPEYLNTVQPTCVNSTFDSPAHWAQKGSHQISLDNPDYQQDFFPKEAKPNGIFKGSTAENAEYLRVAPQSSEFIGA
Sequence of EGFR wildtype (WT) (P00533 25-1210): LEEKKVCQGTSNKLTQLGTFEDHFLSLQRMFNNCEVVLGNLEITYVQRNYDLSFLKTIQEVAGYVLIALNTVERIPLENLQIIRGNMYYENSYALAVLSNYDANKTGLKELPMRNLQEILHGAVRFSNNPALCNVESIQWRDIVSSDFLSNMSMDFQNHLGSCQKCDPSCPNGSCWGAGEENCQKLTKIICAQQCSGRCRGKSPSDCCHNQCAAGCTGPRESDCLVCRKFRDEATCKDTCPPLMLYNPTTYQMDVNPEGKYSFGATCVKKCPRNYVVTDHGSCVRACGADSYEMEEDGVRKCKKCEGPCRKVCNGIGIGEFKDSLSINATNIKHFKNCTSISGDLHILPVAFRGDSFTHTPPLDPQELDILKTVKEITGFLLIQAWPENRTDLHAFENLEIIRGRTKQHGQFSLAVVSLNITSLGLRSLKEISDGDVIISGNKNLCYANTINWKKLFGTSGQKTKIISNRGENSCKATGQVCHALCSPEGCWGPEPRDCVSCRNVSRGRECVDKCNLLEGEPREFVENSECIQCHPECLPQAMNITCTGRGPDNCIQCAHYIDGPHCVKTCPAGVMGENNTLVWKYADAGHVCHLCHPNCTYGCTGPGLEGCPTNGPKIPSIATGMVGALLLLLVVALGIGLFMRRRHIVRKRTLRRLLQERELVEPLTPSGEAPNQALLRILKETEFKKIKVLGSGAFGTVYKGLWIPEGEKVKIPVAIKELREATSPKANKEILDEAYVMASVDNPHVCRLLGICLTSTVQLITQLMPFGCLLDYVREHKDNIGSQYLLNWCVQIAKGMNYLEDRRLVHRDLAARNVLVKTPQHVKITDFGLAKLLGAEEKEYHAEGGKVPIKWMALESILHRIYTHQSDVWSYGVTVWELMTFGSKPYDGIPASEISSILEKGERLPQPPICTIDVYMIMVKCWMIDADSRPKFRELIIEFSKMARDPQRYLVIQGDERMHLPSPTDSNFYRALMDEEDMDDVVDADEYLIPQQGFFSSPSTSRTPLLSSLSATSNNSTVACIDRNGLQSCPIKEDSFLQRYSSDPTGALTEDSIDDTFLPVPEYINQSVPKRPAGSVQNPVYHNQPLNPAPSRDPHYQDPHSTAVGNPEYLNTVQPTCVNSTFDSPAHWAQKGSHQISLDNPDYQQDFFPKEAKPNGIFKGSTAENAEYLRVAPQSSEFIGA
Sequence of EGFR del19/C797S (P00533 with tags, fused parts or gaps DEL746-750/C797S): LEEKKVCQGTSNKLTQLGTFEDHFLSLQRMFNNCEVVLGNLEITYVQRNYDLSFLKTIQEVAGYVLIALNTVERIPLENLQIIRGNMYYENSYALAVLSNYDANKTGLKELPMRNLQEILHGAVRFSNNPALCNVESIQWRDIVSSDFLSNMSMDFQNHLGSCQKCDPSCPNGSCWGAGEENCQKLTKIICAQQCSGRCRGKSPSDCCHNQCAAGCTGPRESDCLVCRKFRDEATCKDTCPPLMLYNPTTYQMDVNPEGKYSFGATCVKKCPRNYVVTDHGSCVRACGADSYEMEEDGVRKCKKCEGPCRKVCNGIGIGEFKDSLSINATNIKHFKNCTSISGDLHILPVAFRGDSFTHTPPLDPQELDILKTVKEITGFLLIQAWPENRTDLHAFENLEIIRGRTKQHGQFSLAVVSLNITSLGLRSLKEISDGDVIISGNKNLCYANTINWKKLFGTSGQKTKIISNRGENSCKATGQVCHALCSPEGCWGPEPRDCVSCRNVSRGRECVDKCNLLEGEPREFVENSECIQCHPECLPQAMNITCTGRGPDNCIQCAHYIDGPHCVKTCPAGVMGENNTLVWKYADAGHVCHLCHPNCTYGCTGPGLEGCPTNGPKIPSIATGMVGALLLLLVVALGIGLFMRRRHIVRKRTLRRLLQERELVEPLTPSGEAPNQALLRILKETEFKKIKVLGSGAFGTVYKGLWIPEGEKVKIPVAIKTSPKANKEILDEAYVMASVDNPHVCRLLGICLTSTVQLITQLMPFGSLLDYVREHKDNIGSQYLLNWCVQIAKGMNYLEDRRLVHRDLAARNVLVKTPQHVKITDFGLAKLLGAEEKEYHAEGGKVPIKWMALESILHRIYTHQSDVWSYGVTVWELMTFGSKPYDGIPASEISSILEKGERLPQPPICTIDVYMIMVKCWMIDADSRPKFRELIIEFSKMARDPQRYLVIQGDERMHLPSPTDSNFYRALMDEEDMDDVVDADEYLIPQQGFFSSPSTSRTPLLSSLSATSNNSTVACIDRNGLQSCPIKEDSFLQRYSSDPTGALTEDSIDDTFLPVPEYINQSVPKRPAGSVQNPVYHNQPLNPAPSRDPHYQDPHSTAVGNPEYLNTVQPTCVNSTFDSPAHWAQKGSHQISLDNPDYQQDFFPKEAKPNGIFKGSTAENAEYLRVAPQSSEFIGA
Sequence of EGFR del19/T790M/C797S (P00533 with tags, fused parts or gaps DEL746-750/T790M/C797S): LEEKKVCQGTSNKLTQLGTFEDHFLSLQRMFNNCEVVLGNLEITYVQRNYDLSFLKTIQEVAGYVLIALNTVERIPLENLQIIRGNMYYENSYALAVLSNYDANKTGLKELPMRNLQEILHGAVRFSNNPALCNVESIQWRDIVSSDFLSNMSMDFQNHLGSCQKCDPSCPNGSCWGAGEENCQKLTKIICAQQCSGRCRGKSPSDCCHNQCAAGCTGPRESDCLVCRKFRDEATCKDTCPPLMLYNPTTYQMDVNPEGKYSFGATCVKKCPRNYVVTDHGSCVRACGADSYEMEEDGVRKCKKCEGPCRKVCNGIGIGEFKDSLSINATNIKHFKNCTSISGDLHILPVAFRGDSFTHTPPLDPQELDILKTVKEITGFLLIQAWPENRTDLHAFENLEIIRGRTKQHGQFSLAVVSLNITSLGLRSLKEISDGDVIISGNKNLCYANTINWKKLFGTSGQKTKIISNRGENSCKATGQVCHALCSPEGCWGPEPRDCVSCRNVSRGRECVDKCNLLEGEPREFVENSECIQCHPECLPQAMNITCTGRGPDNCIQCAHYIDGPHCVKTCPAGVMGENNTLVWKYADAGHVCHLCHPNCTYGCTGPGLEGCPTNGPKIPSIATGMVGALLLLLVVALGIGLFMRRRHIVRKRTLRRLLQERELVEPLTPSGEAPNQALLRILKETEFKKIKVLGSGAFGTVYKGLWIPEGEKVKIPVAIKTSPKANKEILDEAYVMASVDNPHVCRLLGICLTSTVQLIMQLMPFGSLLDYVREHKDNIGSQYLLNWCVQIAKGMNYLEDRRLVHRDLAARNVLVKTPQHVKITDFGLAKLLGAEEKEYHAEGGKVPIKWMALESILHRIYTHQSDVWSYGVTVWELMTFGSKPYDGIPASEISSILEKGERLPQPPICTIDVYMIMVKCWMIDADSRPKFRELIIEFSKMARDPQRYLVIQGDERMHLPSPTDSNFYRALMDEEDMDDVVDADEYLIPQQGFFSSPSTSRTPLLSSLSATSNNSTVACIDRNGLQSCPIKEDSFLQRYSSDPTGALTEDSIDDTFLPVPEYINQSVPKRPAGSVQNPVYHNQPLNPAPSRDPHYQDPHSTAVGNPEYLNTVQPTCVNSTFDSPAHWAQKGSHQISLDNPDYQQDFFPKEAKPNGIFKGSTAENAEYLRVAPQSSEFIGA

`O=S(=O)(C1CC1)n1cc(-c2nccc(Nc3cc(NCCCn4ccnc4)c(-c4ccn(C(F)F)n4)cn3)n2)cn1` [Example 41, N^4-(3-(1H-Imidazol-1-yl)propyl)-N^2-(2-(1-(cyclopropylsulfonyl)-1H-pyrazol-4-yl)pyrimidin-4-yl)-5-(1-(difluoromethyl)-1H-pyrazol-3-yl)pyridine-2,4-diamine]: the IC50 against EGFR L858R/T790M/C797S (setting [1]) was 6.8 nM; against EGFR L858R/C797S (setting [2]) it was above 10000 nM; against EGFR del19/T790M/C797S (setting [3]) it was 2 nM; on EGFR del19/C797S (setting [4]), 34.8 nM; at EGFR wildtype (WT) (setting [5]), above 10000 nM.
Turning to `C[C@]1(O)CC[C@H](CNc2cc(Nc3ccnc(-c4cnn(S(=O)(=O)C5CC5)c4)n3)ncc2-c2ccn(C(F)F)n2)CC1` [Example 36, (1r,4r)-4-(((2-((2-(1-(Cyclopropylsulfonyl)-1H-pyrazol-4-yl)pyrimidin-4-yl)amino)-5-(1-(difluoromethyl)-1H-pyrazol-3-yl)pyridin-4-yl)amino)methyl)-1-methylcyclohexan-1-ol], the IC50 on EGFR L858R/T790M/C797S (setting [1]) is 1.2 nM; on EGFR L858R/T790M/C797S (setting [6]), 0.3 nM; on EGFR L858R/C797S (setting [2]) it was 33.8 nM; at EGFR L858R/C797S (setting [7]) it was 3.9 nM; against EGFR del19/T790M/C797S (setting [3]) it was 1 nM; on EGFR del19/T790M/C797S (setting [8]), 0.8 nM. The IC50 against EGFR del19/C797S (setting [4]) is 6.8 nM; on EGFR del19/C797S (setting [9]) it was 5.4 nM; at EGFR wildtype (WT) (setting [5]) it was above 10000 nM; at EGFR wildtype (WT) (setting [10]), 25.1 nM.
In the case of `CC(C)(O)c1nc(-c2cnc(Nc3ccnc(-c4cnn(S(=O)(=O)C5CC5)c4)n3)cc2N[C@H]2CC[C@@H](O)CC2)cs1` [Example 76, (1s,4s)-4-((2-((2-(1-(Cyclopropylsulfonyl)-1H-pyrazol-4-yl)pyrimidin-4-yl)amino)-5-(2-(2-hydroxypropan-2-yl)thiazol-4-yl)pyridin-4-yl)amino)cyclohexan-1-ol], the IC50 stood at 2.3 nM against EGFR L858R/T790M/C797S (setting [1]); 3 nM at EGFR L858R/C797S (setting [2]); 0.7 nM at EGFR del19/T790M/C797S (setting [3]); 0.4 nM at EGFR del19/C797S (setting [4]); 1520 nM on EGFR wildtype (WT) (setting [5]).
With `O=S(=O)(C1CC1)n1cc(-c2nccc(Nc3cc(NC4CCC(F)CC4)c(-c4ccn(C(F)F)n4)cn3)n2)cn1` (centres unmarked) [Example 214, N^2-(2-(1-(Cyclopropylsulfonyl)-1H-pyrazol-4-yl)pyrimidin-4-yl)-5-(1-(difluoromethyl)-1H-pyrazol-3-yl)-N^4-(4-fluorocyclohexyl)pyridine-2,4-diamine], the IC50 was determined as 3.1 nM on EGFR L858R/T790M/C797S (setting [6]); 3.4 nM at EGFR L858R/C797S (setting [7]); 5.2 nM on EGFR del19/T790M/C797S (setting [8]); 9.9 nM at EGFR del19/C797S (setting [9]); 45.2 nM at EGFR wildtype (WT) (setting [10]).
Consider `Cc1nn(CC(F)(F)F)cc1-c1nccc(Nc2cc(N[C@H]3CC[C@@H](CCO)CC3)c(-c3ccn(C(F)F)n3)cn2)n1` [Example 326, 2-((1s,4s)-4-((5-(1-(Difluoromethyl)-1H-pyrazol-3-yl)-2-((2-(3-methyl-1-(2,2,2-trifluoroethyl)-1H-pyrazol-4-yl)pyrimidin-4-yl)amino)pyridin-4-yl)amino)cyclohexyl)ethan-1-ol], for which the IC50 on EGFR L858R/T790M/C797S (setting [6]) was 0.7 nM; at EGFR L858R/C797S (setting [7]), 7.9 nM; on EGFR del19/T790M/C797S (setting [8]) it was 1.4 nM; on EGFR del19/C797S (setting [9]), 13.3 nM; at EGFR wildtype (WT) (setting [10]) it was 18.8 nM.
For `Cc1nn(CC(F)(F)F)cc1-c1cc(Nc2ncc(-c3cc(C(F)(F)F)n(C)n3)c(N[C@H]3CC[C@@](C)(O)CC3)n2)ccn1` [Example 369, (1s,4s)-1-Methyl-4-((2-((2-(3-methyl-1-(2,2,2-trifluoroethyl)-1H-pyrazol-4-yl)pyridin-4-yl)amino)-5-(1-methyl-5-(trifluoromethyl)-1H-pyrazol-3-yl)pyrimidin-4-yl)amino)cyclohexan-1-ol], the IC50 was determined as 1 nM at EGFR L858R/T790M/C797S (setting [11]); 10.1 nM on EGFR L858R/C797S (setting [12]); 3.1 nM at EGFR del19/T790M/C797S (setting [13]); 8.1 nM at EGFR del19/C797S (setting [14]); 72.7 nM on EGFR wildtype (WT) (setting [15]).
Consider `COc1cc(-c2nccc(Nc3cc(N[C@H]4CC[C@@](C)(O)CC4)c(-c4ccn(C(F)F)n4)cn3)n2)ccn1` [Example 169, (1s,4s)-4-((5-(1-(Difluoromethyl)-1H-pyrazol-3-yl)-2-((2-(2-methoxypyridin-4-yl)pyrimidin-4-yl)amino)pyridin-4-yl)amino)-1-methylcyclohexan-1-ol], for which the IC50 at EGFR L858R/T790M/C797S (setting [6]) was determined as 15.5 nM; at EGFR L858R/C797S (setting [7]), 43.4 nM; on EGFR del19/T790M/C797S (setting [8]), 20.1 nM; at EGFR del19/C797S (setting [9]) it was 110 nM; at EGFR wildtype (WT) (setting [10]) it was 325 nM.
Regarding `C[C@]1(O)CC[C@@H](Nc2nc(Nc3ccnc(-c4cnn(S(=O)(=O)C5CC5)c4)c3)ncc2-c2ccn(C(F)F)n2)CC1` [Example 355, (1s,4s)-4-((2-((2-(1-(Cyclopropylsulfonyl)-1H-pyrazol-4-yl)pyridin-4-yl)amino)-5-(1-(difluoromethyl)-1H-pyrazol-3-yl)pyrimidin-4-yl)amino)-1-methylcyclohexan-1-ol], the IC50 on EGFR L858R/T790M/C797S (setting [11]) came out at 0.3 nM; at EGFR L858R/C797S (setting [12]) it was 13.3 nM; at EGFR del19/T790M/C797S (setting [13]), 0.7 nM; on EGFR del19/C797S (setting [14]), 11 nM; at EGFR wildtype (WT) (setting [15]) it was 64.4 nM.
Turning to `CN(C)CC[C@H]1CC[C@@H](Nc2cc(Nc3ccnc(-c4cnn(S(=O)(=O)C5CC5)c4)n3)ncc2-c2ccn(C(F)F)n2)CC1` [Example 211, N^2-(2-(1-(Cyclopropylsulfonyl)-1H-pyrazol-4-yl)pyrimidin-4-yl)-5-(1-(difluoromethyl)-1H-pyrazol-3-yl)-N^4-((1s,4s)-4-(2-(dimethylamino)ethyl)cyclohexyl)pyridine-2,4-diamine], the IC50 on EGFR L858R/T790M/C797S (setting [6]) is 0.3 nM; on EGFR L858R/C797S (setting [7]), 0.1 nM; at EGFR del19/T790M/C797S (setting [8]), 0.6 nM; on EGFR del19/C797S (setting [9]), 0.4 nM; at EGFR wildtype (WT) (setting [10]), 0.3 nM.
With `Cc1nn(CC(F)(F)F)cc1-c1nccc(Nc2cc(N[C@H]3CC[C@@H](CCO)CC3)c(-c3ccn(CC(F)F)n3)cn2)n1` [Example 337, 2-((1s,4s)-4-((5-(1-(2,2-Difluoroethyl)-1H-pyrazol-3-yl)-2-((2-(3-methyl-1-(2,2,2-trifluoroethyl)-1H-pyrazol-4-yl)pyrimidin-4-yl)amino)pyridin-4-yl)amino)cyclohexyl)ethan-1-ol], the IC50 at EGFR L858R/T790M/C797S (setting [11]) worked out at 0.5 nM; on EGFR L858R/C797S (setting [12]), 3.7 nM; on EGFR del19/T790M/C797S (setting [13]), 0.8 nM; at EGFR del19/C797S (setting [14]), 6.1 nM; on EGFR wildtype (WT) (setting [15]), 9 nM.
As for `CC(C)Nc1cc(Nc2ccnc(-c3cnn(S(=O)(=O)C4CC4)c3)n2)ncc1-c1ccn(CCC(F)(F)F)n1` [Example 304, N^2-(2-(1-(Cyclopropylsulfonyl)-1H-pyrazol-4-yl)pyrimidin-4-yl)-N^4-isopropyl-5-(1-(3,3,3-trifluoropropyl)-1H-pyrazol-3-yl)pyridine-2,4-diamine], the IC50 on EGFR L858R/T790M/C797S (setting [6]) turned out to be 1.8 nM; on EGFR L858R/C797S (setting [7]), 0.8 nM; on EGFR del19/T790M/C797S (setting [8]), 1.1 nM; at EGFR del19/C797S (setting [9]), 340 nM; at EGFR wildtype (WT) (setting [10]), 355 nM.
As to `CN(CC(F)F)C[C@H]1CC[C@@H](Nc2cc(Nc3ccnc(-c4cnn(S(=O)(=O)C5CC5)c4)n3)ncc2-c2ccn(C)n2)CC1` [Example 237, N^2-(2-(1-(Cyclopropylsulfonyl)-1H-pyrazol-4-yl)pyrimidin-4-yl)-N^4-((1s,4s)-4-(((2,2-difluoroethyl)(methyl)amino)methyl)cyclohexyl)-5-(1-methyl-1H-pyrazol-3-yl)pyridine-2,4-diamine], the IC50 against EGFR L858R/T790M/C797S (setting [1]) is 5.4 nM; on EGFR L858R/T790M/C797S (setting [6]), 3 nM; on EGFR L858R/C797S (setting [2]), 61.4 nM; at EGFR L858R/C797S (setting [7]), 6.5 nM; against EGFR del19/T790M/C797S (setting [3]) it was 7.4 nM; on EGFR del19/T790M/C797S (setting [8]) it was 12.1 nM. Also, the IC50 amounted to 6.7 nM against EGFR del19/C797S (setting [4]), 17.5 nM at EGFR del19/C797S (setting [9]), 2800 nM against EGFR wildtype (WT) (setting [5]) and 15.5 nM on EGFR wildtype (WT) (setting [10]).
For `O=S(=O)(C1CC1)n1cc(-c2nccc(Nc3cc(NCC4CC5(CNC5)C4)c(-c4ccn(C(F)F)n4)cn3)n2)cn1` [Example 26, N^4-((2-Azaspiro[3.3]heptan-6-yl)methyl)-N^2-(2-(1-(cyclopropylsulfonyl)-1H-pyrazol-4-yl)pyrimidin-4-yl)-5-(1-(difluoromethyl)-1H-pyrazol-3-yl)pyridine-2,4-diamine], the IC50 against EGFR L858R/T790M/C797S (setting [1]) was determined as 0.3 nM; at EGFR L858R/T790M/C797S (setting [6]), 0.1 nM; against EGFR L858R/C797S (setting [2]) it was 26.5 nM; at EGFR L858R/C797S (setting [7]), 2.3 nM; against EGFR del19/T790M/C797S (setting [3]) it was 0.2 nM; on EGFR del19/T790M/C797S (setting [8]), 0.1 nM. The IC50 against EGFR del19/C797S (setting [4]) came out at 1.8 nM; at EGFR del19/C797S (setting [9]), 1.3 nM; at EGFR wildtype (WT) (setting [5]) it was 3740 nM; at EGFR wildtype (WT) (setting [10]), 6.7 nM.
